Assay results reported in patent publication US20050130938A1, “Method for alleviating syndromes and conditions of discomfort of the mammalian intestinal and genito-urinary tracts” (AkPharma Inc., priority 2001, published 2005).

Experiments:
[1] = test system: excised animal uterus tissue; details: cited from earlier work; for action on the uterus: in vitro, excised animal uterus tissue
intestinal musculature = details: some cases; product withdrawn December 2000; cited from earlier work
[2] = cited from earlier work
[3] = test system: IBS-related symptoms and conditions; assay: 'pre-study' IBS survey of patients taking CGP tablets for 28 days; format: in vivo, human
Excerpt: A ‘pre-study’ IBS survey was taken in a large private gastroenterology practice in southern New Jersey. Each of the patients in the survey consumed a series of 2-tablet doses of CGP, in which each tablet contained 0.335 grams CGP so that each dosage was 0.67 gram of CGP. Two tablets were consumed at breakfast, lunch, and dinner, regardless of the acidity of the foods consumed at the meals, and two additional tablets were consumed with any snack eaten during the day, regardless of the acidity of the snack. The total consumption by each patient varied from 8-10 tablets per day up to 20 tablets per day.
The survey included twelve patients, eight of whom completed graphs of their 28-day experience with CGP. The experiences of the four remaining patients were written up by the medical supervisor based on oral reports. […] The patients marked daily, in 10% increments and 10% decrements, whether they felt up to 100% better or down to 100% worse as a result of the treatment.

[4] = test system: Interstitial Cystitis Symptoms; details: key exacerbant foods and beverages; cited from earlier work
[5] = test system: Food-Sensitive Interstitial Cystitis Patients; details: cited from earlier work
Interstitial Cystitis = details: ICSG members; cited from earlier work
astrocytes and neurons = details: culture; cited from earlier work

O=P([O-])([O-])OCC(O)CO.[Mg+2] (stereo not drawn) [magnesium glycerophosphate]
anti-spasmodic behavior on the intestine [1]: exclude the intestine
action on the uterus [1]: uterine anti-spasmodic agents

Cc1[nH]cnc1CN1CCc2c(c3ccccc3n2C)C1=O [Lotronex]
adverse events in use (intestinal musculature): intestinal ischemic collapse

O=P([O-])([O-])OC(CO)CO.[Na+].[Na+] [sodium glycerophosphate, Sodium Beta-Glycerophosphate]
anti-spasmodic behavior on the intestine [1]: exclude the intestine
action on the uterus [1]: uterine anti-spasmodic agents

O=C([O-])[O-].[Ca+2] [calcium carbonate, reference compound]
time after ingestion until calcium is released ([2]; estimated, only in an acidic milieu): 20 to 30 min

O=P([O-])([O-])OCC(O)CO.[Ca+2] (stereo not drawn) [CGP, 1,2,3-propanetriol, mono(dihydrogen phosphate) calcium salt (1:1)]
oral reports to the medical supervisor ([3]; patients without graphs, one of four discontinued): helpful and effective at relieving symptoms and/or pain
effect on pain and/or symptoms in two of the eight patients who completed graphs (flatliners) ([3]; self-rated daily graph): no effect
results of the remaining six patients who completed graphs ([3]; self-rated daily graph, some going to 100% improvement and maintaining that level): good to remarkable
drop on the self-rated scale on the day without CGP ([3]; single patients, one value each): 10-20% and “50% better” to “50% worse” and “100% better” to “40% worse.”
condition on the one day on which CGP was not ingested ([3]; three patients, returned to improved state upon resuming treatment): marked condition deterioration
patients showed major improvements in IBS-related symptoms and conditions ([3]; twelve patients, oral 0.67 gram per dose with meals and snacks, 28 days): 75%
patients reported a reduction in [urinary] urgency [4]: 61.3%
patients reported a reduction in pain and discomfort [4]: 70.4%
pain as a result of consuming CGP ([5]; decreased from 76.7%): 41%
urinary urgency as a result of consuming CGP ([5]; decreased from 79.5%): 51%
participants enabled to tolerate a wider variety of foods of an acidic nature (Interstitial Cystitis): 81%
participants found it to be beneficial (Interstitial Cystitis): 69%
effect on astrocytes in vitro (astrocytes and neurons): enhance the proliferation and differentiation of astrocytes
effect on neurons compared with calcium chloride and non-reagent added media (astrocytes and neurons): significant survival effects
dissociation of calcium from the anion ([2]; regardless of the pH level in the stomach): instantly dissociated
